According to patent US12428432B2, “Thienopyrimidine derivatives having stereo configurations and use thereof in medicine” (SUNSHINE LAKE PHARMA CO., LTD., priority 2019, dated 2025):
Read-outs that look alike come from different tables or passages of the source.

Columns and labels:
[1] = Tissue distribution (liver/plasma) in mice after intragastric administration, LC-MS/MS; assay type: in vivo, C57BL/6 mice; settings: C57BL/6 male mice; for Kp at 0.5 h / Kp at 1 h / Kp at 2 h / concentration at 0.5 h / concentration at 1 h / concentration at 2 h: mouse, oral, 5 ml/kg; for Kp at 0.5 h / Kp at 1 h / Kp at 2 h: liver/plasma; for Kp at 0.5 h: read-out: Partition ratios of liver and plasma 0.5 h; for Kp at 1 h: read-out: Partition ratios of liver and plasma 1 h; for Kp at 2 h: read-out: Partition ratios of liver and plasma 2 h
Procedure: C57BL/6 mice were used as the test animals, the LC-MS/MS method was used to determine the drug concentration in plasma and liver at different times after the mice were administered intragastrically the compounds of Examples 1 to 3 and A13. Pharmacokinetic properties of the compounds of the present invention in mice were studied.
The prescriptions of A13, Example 1 and Example 2 were: 5% DMSO+5% Kolliphor HS15+90% Saline
The prescription of Example 3 was: 10% DMSO+10% Kolliphor HS15+80% Saline
Healthy adult C57BL/6 male mice, purchased from Hunan Slack Jingda Experimental Animal Co., Ltd., with an animal weight of 18-24 g, were administered intragastrically at a dosage of […] and a volume of 10 ml/kg.
Bloods were collected from the orbit at different time points, and the whole blood samples were placed in an anticoagulation tube containing EDTA-K2; the plasma was separated by centrifugation (centrifugation conditions: 12000 rpm, 2 min) and the upper plasma sample was collected and placed into a sample tube.
Animals were dissected and collected livers at different time points, a certain mass of liver tissue was weighed, 5 times the volume (m/V) of methanol solution was added to the homogenization tube, then homogenized at 60 hz for 2 minutes and centrifuged at 4° C. for 2 minutes, the supernatant was taken to obtain the liver homogenate.
LC-MS/MS was used to analyze the content of the test compounds in the plasma and liver of the mice after the compounds were administered intragastrically.

[2] = Liver microsome stability test; assay type: in vitro ADME; settings: mouse liver microsomes, Conc. 1 μM; for half-life at 1 μM: male, CD-1; for Remaining (%) (NCF = 60 min): no cofactor (buffer instead of NADPH); for Remaining (%) (T = 60 min): with NADPH
Procedure: Male CD-1 mouse liver microsomes, purchased from BD Gentest.
Preparation of stock solution: a certain amount of test compound of A13 and Example 1 were weighed to prepare a stock solution with a concentration of 10 mM with DMSO, and stored in a refrigerator at −20° C.
Preparation of NADPH solution: a certain amount of NADPH to be tested was weighed and prepared a solution with a concentration of 6 mM with 0.1 M potassium phosphate buffer (5 mg of NADPH was weighed and added to 1 mL of potassium phosphate buffer, the concentration was equivalent to 6 mM).
Preparation of compound dosing solution: 100 μM dosing solution: 5 μL of 10 mM stock solution was added to 495 μL of acetonitrile:water (1:1); 30 μM dosing solution: 60 μL of 100 μM dosing solution was added to 140 μL of 0.1 M potassium phosphate buffer; 1.5 μM dosing solution: 25 μL of 30 μM dosing solution and 18.8 μL (20 mg/mL) of liver microsomes were added to 456.2 μL of 0.1 M potassium phosphate buffer, one for each species.
μ30 μL of 1.5 μM dosing solution of the compound was added to a 96-well plate, 150 μL or 200 μL of acetonitrile internal standard was added immediately to the plate, then 15 μL of NADPH solution (6 mM) was added to the plate, the mixture was mixed well and placed in a 4° C. refrigerator as the initial 0 point sample, each drug was made two holes in parallel.
30 μL of 1.5 μM dosing solution was added to positions set at different time points in the 96-well plate, each drug was made two holes in parallel, and the pleat was preheated at 37° C. for 10 min.
After pre-incubation, 15 μL of NADPH solution (6 mM) was added to the well set at the time point of 60 min, at the time point of NCF60, 15 μL of potassium phosphate buffer salt solution was added at the same time to start the reaction and start timing. Then after 40 min, 15 μL of NADPH solution was added to the well set at 20 min. After 20 min, the incubation was over. 150 or 200 μL of acetonitrile internal standard was added to the positions set at all time points. The plate was centrifuged at 4000 rpm for 5 min, 50 μL supernatant was taken out and diluted with 150 μL water for sample analysis.
The initial 0 point was used as 100%, the relative content of the drug at each time point was calculated. GraphPad Prism5 software was used to plot the “relative content of the drug” versus “incubation time” to calculate the half-life of the drug and calculate the intrinsic clearance rate.

ACC1 = ACC1 (Homo sapiens (Human), UniProt Q13085); assay: In vitro inhibitory activity test of acetyl-CoA carboxylase (ADP-Glo Kinase Analysis), ACC1; assay type: biochemical
Procedure: (§1) The in vitro inhibitory effects of the compounds on ACC1 or ACC2 were tested by ADP-Glo™ Kinase Analysis Kit from Promega Company. The ADP-Glo™ Kinase Analysis was a luminescent ADP detection analysis, which was used to measure enzyme activity by quantifying the amount of ADP produced during the enzyme reaction. The analysis was performed with two steps: first, after the enzyme reaction, ADP-Glo™ reagent was added to stop the reaction and deplete the remaining ATP; then, a kinase detection reagent was added to simultaneously convert ADP to ATP and the newly synthesized ATP was measured using the luciferase/luciferin reaction. The luminescence can be correlated to the ADP concentration by using the ATP to ADP conversion curve.
(§2) The specific steps are as follows: • a. 4.5 μL/well of ACC1/ACC2 working solution (2.22 nM) was added to a 384-well reaction plate (PerkinElmer, 6007290); • b. The compound (10 mM stock solution) was diluted 500 times to 20 μM with 100% DMSO, and diluted in a ratio of 1:3 in a 384 dilution plate (3657, corning). The gradient concentrations of the compound were 20, 6.67, 2.22 0.74, 0.25, 0.082, 0.027, 0.009, 0.003, 0.001, 0 μM; • c. 0.5 μL/well of the compound solution (prepared in step b) was transferred to the 384-well reaction plate (prepared in step a), then plate was centrifuged at 1000 rpm and incubated at 25° C. for 15 minutes; • d. […] Relative luminescence unit (RLU) was read on an Envision multifunction plate reader. […]
(§3) The average values of each concentration and the data of the positive and negative controls were calculated, as well as the standard deviation. The percentage of inhibition was calculated by the formula: 100×(average negative control−compound)/(average negative control−average positive control). The IC50 for each compound was calculated by fitting the data with a nonlinear regression equation: Y=Bottom+(Top−Bottom)/(1+10^((Log IC50−X)×HillSlope)), wherein X is the log of compound concentration and Y is the percentage of inhibition.

ACC2 = ACC2 (Homo sapiens (Human), UniProt O00763); assay: In vitro inhibitory activity test of acetyl-CoA carboxylase (ADP-Glo Kinase Analysis), ACC2; assay type: biochemical
Procedure: as §1, §2, §3

[3] = liver, read-out: Average tissue concentrations (liver) 0.5 h
[4] = liver, 1 h, read-out: Average tissue concentrations (liver) 1 h
[5] = liver, read-out: Average tissue concentrations (liver) 2 h
[6] = plasma, read-out: Average concentration (plasma) 0.5 h
[7] = plasma, 1 h, read-out: Average concentration (plasma) 1 h
[8] = plasma, read-out: Average concentration (plasma) 2 h

Chain of ACC2 (O00763 whole entry, species assumed): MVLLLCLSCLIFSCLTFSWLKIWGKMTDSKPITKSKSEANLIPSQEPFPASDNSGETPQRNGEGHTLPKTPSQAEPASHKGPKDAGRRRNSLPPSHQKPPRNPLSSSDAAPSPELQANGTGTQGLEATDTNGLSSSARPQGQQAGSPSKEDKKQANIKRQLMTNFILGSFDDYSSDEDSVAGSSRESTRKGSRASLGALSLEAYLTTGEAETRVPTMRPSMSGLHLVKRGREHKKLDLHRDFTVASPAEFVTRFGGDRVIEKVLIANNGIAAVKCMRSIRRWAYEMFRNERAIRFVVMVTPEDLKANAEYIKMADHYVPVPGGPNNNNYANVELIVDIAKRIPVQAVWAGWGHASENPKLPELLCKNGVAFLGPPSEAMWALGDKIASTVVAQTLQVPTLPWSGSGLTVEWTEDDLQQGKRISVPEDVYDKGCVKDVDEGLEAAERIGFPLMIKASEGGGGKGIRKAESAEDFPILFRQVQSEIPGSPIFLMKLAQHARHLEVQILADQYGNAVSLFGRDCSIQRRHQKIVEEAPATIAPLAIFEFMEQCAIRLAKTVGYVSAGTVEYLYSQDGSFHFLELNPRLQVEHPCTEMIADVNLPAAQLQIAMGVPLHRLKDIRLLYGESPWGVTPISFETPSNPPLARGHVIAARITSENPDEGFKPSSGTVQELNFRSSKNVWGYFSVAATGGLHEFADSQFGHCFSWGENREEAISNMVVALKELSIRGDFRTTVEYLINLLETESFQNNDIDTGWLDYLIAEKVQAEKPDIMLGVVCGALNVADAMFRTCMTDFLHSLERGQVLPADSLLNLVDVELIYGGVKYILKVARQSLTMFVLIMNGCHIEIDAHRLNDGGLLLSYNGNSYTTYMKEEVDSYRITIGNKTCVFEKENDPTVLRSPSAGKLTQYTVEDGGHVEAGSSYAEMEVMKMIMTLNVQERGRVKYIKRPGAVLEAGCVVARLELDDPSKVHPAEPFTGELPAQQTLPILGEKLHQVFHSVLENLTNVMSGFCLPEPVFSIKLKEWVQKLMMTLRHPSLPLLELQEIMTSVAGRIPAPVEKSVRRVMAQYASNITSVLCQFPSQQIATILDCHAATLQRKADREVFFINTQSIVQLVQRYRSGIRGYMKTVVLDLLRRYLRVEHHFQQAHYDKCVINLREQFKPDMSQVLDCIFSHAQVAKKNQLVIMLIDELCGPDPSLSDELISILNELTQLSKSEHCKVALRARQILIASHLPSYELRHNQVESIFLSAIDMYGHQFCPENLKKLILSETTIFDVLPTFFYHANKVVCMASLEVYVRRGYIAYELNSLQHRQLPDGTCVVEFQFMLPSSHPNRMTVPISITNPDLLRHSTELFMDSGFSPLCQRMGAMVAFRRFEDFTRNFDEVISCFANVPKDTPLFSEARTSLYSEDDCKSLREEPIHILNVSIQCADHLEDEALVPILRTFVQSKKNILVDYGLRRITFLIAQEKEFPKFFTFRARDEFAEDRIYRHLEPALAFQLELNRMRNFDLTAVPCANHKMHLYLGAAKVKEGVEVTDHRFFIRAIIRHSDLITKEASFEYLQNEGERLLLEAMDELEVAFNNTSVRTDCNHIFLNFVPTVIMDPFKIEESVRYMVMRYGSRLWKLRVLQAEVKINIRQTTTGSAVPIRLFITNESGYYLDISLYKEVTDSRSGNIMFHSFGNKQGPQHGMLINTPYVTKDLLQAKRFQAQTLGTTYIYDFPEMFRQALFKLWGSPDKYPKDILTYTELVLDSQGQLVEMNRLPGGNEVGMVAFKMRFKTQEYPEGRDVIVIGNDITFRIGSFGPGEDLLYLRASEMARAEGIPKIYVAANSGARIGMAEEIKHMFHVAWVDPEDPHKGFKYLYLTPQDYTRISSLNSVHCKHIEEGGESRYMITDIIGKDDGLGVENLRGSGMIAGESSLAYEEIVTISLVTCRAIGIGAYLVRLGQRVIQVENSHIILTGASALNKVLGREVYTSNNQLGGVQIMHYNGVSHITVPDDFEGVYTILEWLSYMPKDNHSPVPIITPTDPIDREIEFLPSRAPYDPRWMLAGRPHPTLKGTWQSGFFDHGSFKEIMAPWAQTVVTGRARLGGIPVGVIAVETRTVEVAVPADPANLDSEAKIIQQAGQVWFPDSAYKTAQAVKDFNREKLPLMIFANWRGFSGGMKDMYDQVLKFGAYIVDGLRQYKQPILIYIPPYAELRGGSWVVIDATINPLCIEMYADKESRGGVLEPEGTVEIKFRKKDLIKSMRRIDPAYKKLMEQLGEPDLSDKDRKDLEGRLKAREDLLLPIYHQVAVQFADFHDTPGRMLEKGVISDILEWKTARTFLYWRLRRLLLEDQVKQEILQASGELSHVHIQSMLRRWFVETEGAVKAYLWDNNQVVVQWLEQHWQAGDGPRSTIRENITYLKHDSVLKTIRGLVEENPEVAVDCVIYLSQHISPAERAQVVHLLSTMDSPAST

Kp at 0.5 h [1]	Kp at 1 h ([1]; 1 h)	Kp at 2 h [1]	concentration at 0.5 h [1, 3]	concentration at 1 h [1, 4]	concentration at 2 h [1, 5]	concentration at 0.5 h [1, 6]	concentration at 1 h [1, 7]	concentration at 2 h [1, 8]	half-life at 1 μM [2]	ClHep [2]	Clin vivo [2]	ER [2]	Remaining (%) (NCF = 60 min) [2]	Remaining (%) (T = 60 min) [2]	IC50 (ACC1)	IC50 (ACC2)	Partition ratios of liver and plasma 0.5 h [1]	Partition ratios of liver and plasma 2 h [1]	Average tissue concentrations (liver) 0.5 h ([1]; liver)	Compound	further results
86	130	170	61500 ng/g	33300 ng/g	14000 ng/g	717 ng/g	249 ng/g	82.8 ng/g	1.49 h	60.9 mL/min/kg	36.3 mL/min/kg	0.4	81.0%	63.4%	–	–	–	–	–	COc1ccccc1C(Cn1c(=O)n(C(C)(C)C(=O)O)c(=O)c2c(C)c(-c3ncco3)sc21)OC1CC2COCC2C1 (racemic) [Example A13, reference compound]	–
–	–	–	–	–	–	–	–	–	–	–	–	–	–	–	0.23 nM	2.43 nM	122	104	75500 ng/g	COc1ccccc1[C@H](Cn1c(=O)n(C(C)(C)C(=O)O)c(=O)c2c(C)c(-c3ncco3)sc21)O[C@H]1C[C@H]2COC[C@H]2C1 [Example 3, 2-[1-[(2R)-2-[[(3aR,6aS)-3,3a,4,5,6,6a-hexahydro-1H-cyclopenta[c]furan-5-yl]oxy]-2-(2-methoxyphenyl)ethyl]-5-methyl-6-oxazol-2-yl-2,4-dioxo-thieno[2,3-d]pyrimidin-3-yl]-2-methyl-propionic acid]	Average tissue concentrations (liver) 2 h ([1]; liver): 26500 ng/g; Average concentration (plasma) 0.5 h ([1]; plasma): 669 ng/g; Average concentration (plasma) 2 h ([1]; plasma): 253 ng/g
–	–	–	–	–	–	–	–	–	2.42 h	38.0 mL/min/kg	9.6 mL/min/kg	0.1	90.6%	71.9%	1.42 nM	3.65 nM	190	600	75000 ng/g	COc1ccccc1[C@H](Cn1c(=O)n(C(C)(C)C(=O)O)c(=O)c2c(C)c(-c3ncco3)sc21)OC1C[C@H]2COC[C@@H]2C1 [Example 1, 2-[1-[(2R)-2-[[(3aR,6aR)-3,3a,4,5,6,6a-hexahydro-1H-cyclopenta[c]furan-5-yl]oxy]-2-(2-methoxyphenyl)ethyl]-5-methyl-6-oxazol-2-yl-2,4-dioxo-thieno[2,3-d]pyrimidin-3-yl]-2-methyl-propionic acid]	Partition ratios of liver and plasma 1 h ([1]; 1 h): 140; Average tissue concentrations (liver) 1 h ([1]; liver, 1 h): 48300 ng/g; Average tissue concentrations (liver) 2 h ([1]; liver): 35500 ng/g; Average concentration (plasma) 0.5 h ([1]; plasma): 391 ng/g; Average concentration (plasma) 1 h ([1]; plasma, 1 h): 336 ng/g; Average concentration (plasma) 2 h ([1]; plasma): 59.1 ng/g
190	120	180	70400 ng/g	40600 ng/g	16900 ng/g	373 ng/g	351 ng/g	96.4 ng/g	–	–	–	–	–	–	1.09 nM	3.82 nM	–	–	–	COc1ccccc1[C@H](Cn1c(=O)n(C(C)(C)C(=O)O)c(=O)c2c(C)c(-c3ncco3)sc21)OC1C[C@@H]2COC[C@H]2C1 [Example 2, 2-[1-[(2R)-2-[[(3aS,6aS)-3,3a,4,5,6,6a-hexahydro-1H-cyclopenta[c]furan-5-yl]oxy]-2-(2-methoxyphenyl)ethyl]-5-methyl-6-oxazol-2-yl-2,4-dioxo-thieno[2,3-d]pyrimidin-3-yl]-2-methyl-propionic acid]	–
